Assay results from patent publication US10941126B2, “Bridged bicycloalkyl-substituted aminothiazoles and their methods of use” (Temple University—Of The Commonwealth System of Higher …, priority 2017, dated 2021).

Legend:
CDK9 = molecular target: T1, CDK9 (Homo sapiens, UniProt P50750); assay: Kinase enzymatic assay (Nanosyn, microfluidic), IC50 curves against CDKs; type: biochemical
T1 construct: Nanosyn (contract assay)
Experimental: HDAC inhibitory activity assays were performed using FLUOR DE LYS® HDAC fluorometric activity assay kit from Enzo following the manufacturer's instructions. GloMax®-Multi Detection System (Promega) was used to read the fluorescence signals. Histone methyltransferase and demethylase enzymatic assays were performed by BPS Bioscience at 10 μM in duplicates. Kinase enzymatic assays were performed by Nanosyn using microfluidic technology. 250 kinome screening was done in duplicates using MC180295 at 1 μM. IC50 curves against 10 CDKs were created for MC180295. The human kinome tree was annotated using the online Kinome Render software (Chartier, M., Chénard, T., Barker, J., and Najmanovich, R. (2013). PeerJ 1, e126). Isotope kinase assay was performed using previously described methods (Garriga, J., Peng, J., Parreño, M., Price, D. H., Henderson, E. E., and Graña, X. (1998). Oncogene 17, 3093-3102) using recombinant active full-length CDK9/CyclinT1 (Millipore, 14-685) and SMARCA4 (Abcam, ab82237) in the presence or absence of CDK9 inhibitors.

YB5 = assay: Cell cycle analysis and sub-G1 (propidium iodide); type: cell-based, human; settings: four-day drug treatment
Experimental: For drug screening and dose response validations, GFP positive cells were detected by Millipore Guava flow cytometer (EMD, Millipore). Cell cycle analysis was performed using BD FACSCalibur™ by propidium iodide staining four days after drug treatment. Sub-G1 population percentage was also included to measure apoptotic cell proportion. Data were analyzed using FlowJo software version 10.2. For the cell differentiation analysis, cells were washed and stained with propidium iodide (PI), CD11 b (BD Biosciences, #562793) and the isotype control IgG (BD Biosciences, #555748). Flow cytometry analysis was performed on a Millipore Guava flow cytometer (EMD, Millipore). For the ID8 in vivo experiments, ascites was drained from 5-10 mice per group and incubated in ACK buffer (Thermo Fisher) to lyse red blood cells for 10 minutes, then washed. Ascites from each mouse was individually lysed and prepared for flow cytometry. Mononuclear cells collected were cultured for 4 hours in RPMI with 5% Fetal Bovine Serum and in the presence of Cell Stimulation Cocktail (plus protein transport inhibitors; eBioscience). […] Flow cytometry acquisition was performed on an LSRII cytometer (BD Biosciences) and data were analyzed using FlowJo software version 10.2.

SW48 colon cancer cells = assay: SW48-luc tumors in NSG mice (bioluminescence); type: in vivo, mouse; settings: 10 mg/kg
Experimental: SW48-luc cell line was generated by transfecting ffluc2ires-h2b-egfp into SW48 cells. GFP positive cells were sorted out one week after transfection and expanded for the in vivo experiments. NSG mice were then inoculated (i.p.) with 1×10^5 SW48-luc cells. One week later, at which time substantial tumor burden was evident by bioluminescence imaging, 5-20 mg/kg MC180295 or drug solvent was administered (i.p) every other day. 200 uL of diluted Pierce™ D-Luciferin, Monosodium Salt (Fisher, 88292) (working concentration: 15 mg/mL) was administered (i.p) into each mouse and was imaged using IVIS imaging system 5 minutes after the administration. Three vehicle treated mice and five drug treated mice were used in this study. MC180295 was dissolved in NMP, Captisol (20% w/v), PEG-400 and normal saline (PBS) in a ratio of 1:4:4:11. NMP first, followed by Captisol and PEG-400. PBS was added last.

T1 sequence (P50750 whole entry): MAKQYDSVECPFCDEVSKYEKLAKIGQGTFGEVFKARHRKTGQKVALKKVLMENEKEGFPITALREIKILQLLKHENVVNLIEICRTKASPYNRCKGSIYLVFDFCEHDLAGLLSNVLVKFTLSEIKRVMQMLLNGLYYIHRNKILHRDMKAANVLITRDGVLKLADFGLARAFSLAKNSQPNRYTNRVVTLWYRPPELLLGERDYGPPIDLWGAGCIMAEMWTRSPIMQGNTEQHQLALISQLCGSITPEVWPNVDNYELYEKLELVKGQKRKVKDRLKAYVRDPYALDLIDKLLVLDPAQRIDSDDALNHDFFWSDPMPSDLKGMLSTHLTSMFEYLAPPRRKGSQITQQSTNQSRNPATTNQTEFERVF
T1 sequence (O60563 whole entry partner): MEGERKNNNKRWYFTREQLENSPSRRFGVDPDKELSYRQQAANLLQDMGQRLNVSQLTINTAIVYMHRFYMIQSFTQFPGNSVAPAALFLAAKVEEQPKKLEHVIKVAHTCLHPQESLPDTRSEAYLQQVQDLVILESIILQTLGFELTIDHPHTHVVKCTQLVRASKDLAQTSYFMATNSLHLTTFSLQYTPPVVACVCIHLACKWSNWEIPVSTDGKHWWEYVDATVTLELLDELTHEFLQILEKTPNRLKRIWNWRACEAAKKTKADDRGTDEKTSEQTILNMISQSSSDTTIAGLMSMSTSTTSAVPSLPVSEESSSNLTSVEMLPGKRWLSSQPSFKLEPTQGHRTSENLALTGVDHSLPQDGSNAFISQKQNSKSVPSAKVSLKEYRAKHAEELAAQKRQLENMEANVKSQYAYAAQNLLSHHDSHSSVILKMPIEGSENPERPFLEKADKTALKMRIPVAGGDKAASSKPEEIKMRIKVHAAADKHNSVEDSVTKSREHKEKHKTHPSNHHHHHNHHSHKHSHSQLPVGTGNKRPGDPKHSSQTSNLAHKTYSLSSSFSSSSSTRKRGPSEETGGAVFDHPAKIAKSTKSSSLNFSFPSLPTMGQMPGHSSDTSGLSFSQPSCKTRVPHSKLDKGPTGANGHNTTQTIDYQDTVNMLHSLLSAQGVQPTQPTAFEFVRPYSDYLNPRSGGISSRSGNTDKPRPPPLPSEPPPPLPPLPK

IC50 (CDK9): 5 nM
selectivity for CDK9 over other CDKs (CDK9; 10 different CDKs): at least 22 fold
SMILES: Nc1nc(N[C@H]2CC3CCC2C3)sc1C(=O)c1ccccc1[N+](=O)[O-] (stereo partly drawn) [MC180295]
cell cycle arrest (YB5): no cell cycle arrest
sub-G1 subpopulation (YB5): increase in the sub-G1 subpopulation
tumor shrinkage (luciferase activity) (SW48 colon cancer cells; after one-week drug exposure): ~50%
tumor burden (luciferase activity) (SW48 colon cancer cells; after three weeks drug treatment): lower
